Experimental data as given in US12595266B2, “Pesticidally active heterocyclic derivatives with sulfur containing substituents” (SYNGENTA CROP PROTECTION AG, priority 2020, dated 2026).

How the values were obtained:
Assay type in all cases: in vivo
[1] = test system: Chilo suppressalis (Striped Rice Stemborer); assay: Activity against Chilo suppressalis (striped rice stemborer); conditions: 144 h, application rate of 200 ppm, artificial diet, L2 larvae, 6 days after infestation, read-out: control (at least one of mortality, anti-feedant effect, growth inhibition)
Procedure: Example B2: Activity Against Chilo suppressalis (Striped Rice Stemborer)
24-well microtiter plates with artificial diet were treated with aqueous test solutions prepared from 10′000 ppm DMSO stock solutions by pipetting. After drying, the plates were infested with L2 larvae (6-8 per well). The samples were assessed for mortality, anti-feeding effect, and growth inhibition in comparison to untreated samples 6 days after infestation. Control of Chilo suppressalis by a test sample is given when at least one of the categories mortality, anti-feedant effect, and growth inhibition is higher than the untreated sample.

[2] = test system: Diabrotica balteata (Corn Root Worm); assay: Activity against Diabrotica balteata (corn root worm); conditions: 96 h, application rate of 200 ppm, maize sprouts sprayed, L2 larvae, 4 days after infestation, read-out: effect in at least one of the two categories (mortality or growth inhibition)
Procedure: Example B3: Activity Against Diabrotica balteata (Corn Root Worm)
Maize sprouts placed onto an agar layer in 24-well microtiter plates were treated with aqueous test solutions prepared from 10′000 ppm DMSO stock solutions by spraying. After drying, the plates were infested with L2 larvae (6 to 10 per well). The samples were assessed for mortality and growth inhibition in comparison to untreated samples 4 days after infestation.

[3] = test system: Euschistus heros (Neotropical Brown Stink Bug); assay: Activity against Euschistus heros (neotropical brown stink bug); conditions: 120 h, application rate of 200 ppm, soybean leaves sprayed, N2 nymphs, 5 days after infestation, read-out: effect in at least one of the two categories (mortality or growth inhibition)
Procedure: Example B4: Activity Against Euschistus heros (Neotropical Brown Stink Bug)
Soybean leaves on agar in 24-well microtiter plates were sprayed with aqueous test solutions prepared from 10′000 ppm DMSO stock solutions. After drying the leaves were infested with N2 nymphs. The samples were assessed for mortality and growth inhibition in comparison to untreated samples 5 days after infestation.

[4] = test system: Myzus persicae (Green Peach Aphid); assay: Activity against Myzus persicae (green peach aphid), feeding/contact activity; conditions: foliar, 144 h, application rate of 200 ppm, sunflower leaf discs sprayed, aphid population of mixed ages, 6 days after infestation
Procedure: Example B6: Activity Against Myzus persicae (Green Peach Aphid) Feeding/Contact Activity
Sunflower leaf discs were placed onto agar in a 24-well microtiter plate and sprayed with aqueous test solutions prepared from 10′000 ppm DMSO stock solutions. After drying, the leaf discs were infested with an aphid population of mixed ages. The samples were assessed for mortality 6 days after infestation.

[5] = test system: Plutella xylostella (Diamond Back Moth); assay: Activity against Plutella xylostella (diamond back moth); conditions: 192 h, application rate of 200 ppm, artificial diet, Plutella eggs, 8 days after infestation, read-out: effect in at least one of the two categories (mortality or growth inhibition)
Procedure: Example B7: Activity Against Plutella xylostella (Diamond Back Moth)
24-well microtiter plates with artificial diet were treated with aqueous test solutions prepared from 10′000 ppm DMSO stock solutions by pipetting. After drying, Plutella eggs were pipetted through a plastic stencil onto a gel blotting paper and the plate was closed with it. The samples were assessed for mortality and growth inhibition in comparison to untreated samples 8 days after infestation.

[6] = test system: Myzus persicae (Green Peach Aphid); assay: Activity against Myzus persicae (green peach aphid), systemic activity; conditions: 144 h, test rate of 24 ppm, roots of infested pea seedlings in test solution (systemic), 6 days
Procedure: Example B9: Activity Against Myzus persicae (Green Peach Aphid) Systemic Activity
Roots of pea seedlings infested with an aphid population of mixed ages were placed directly into aqueous test solutions prepared from 10′000 DMSO stock solutions. The samples were assessed for mortality 6 days after placing seedlings into test solutions.

[7] = test system: Spodoptera littoralis (Egyptian Cotton Leaf Worm); assay: Activity against Spodoptera littoralis (Egyptian cotton leaf worm); conditions: foliar, 72 h, application rate of 200 ppm, cotton leaf discs sprayed, L1 larvae, 3 days after infestation, read-out: control (at least one of mortality, anti-feedant effect, growth inhibition)
Procedure: Example B8: Activity Against Spodoptera littoralis (Egyptian Cotton Leaf Worm)
Cotton leaf discs were placed onto agar in 24-well microtiter plates and sprayed with aqueous test solutions prepared from 10′000 ppm DMSO stock solutions. After drying the leaf discs were infested with five L1 larvae. The samples were assessed for mortality, anti-feeding effect, and growth inhibition in comparison to untreated samples 3 days after infestation. Control of Spodoptera littoralis by a test sample is given when at least one of the categories mortality, anti-feedant effect, and growth inhibition is higher than the untreated sample.

[8] = test system: Bemisia tabaci (Cotton White Fly); assay: Activity against Bemisia tabaci (cotton white fly), feeding/contact activity; conditions: foliar, 144 h, application rate of 200 ppm, cotton leaf discs sprayed, adult white flies, 6 days after incubation
Procedure: Example B1: Activity Against Bemisia tabaci (Cotton White Fly) Feeding/Contact Activity
Cotton leaf discs were placed on agar in 24-well microtiter plates and sprayed with aqueous test solutions prepared from 10′000 ppm DMSO stock solutions. After drying the leaf discs were infested with adult white flies. The samples were checked for mortality 6 days after incubation.

[9] = test system: Carpocapsa (Cydia) Pomonella (Codling Moth); assay: Activity against Carpocapsa (Cydia) pomonella (codling moth), larvicide, feeding/contact; conditions: 336 h, application rate of 12.5 ppm, paraffin-coated diet cubes sprayed, L1 larvae, 14 days after infestation, 26-27° C.
Procedure: Example B10: Activity Against Carpocapsa (Cydia) Pomonella (Codling Moth) Larvicide, Feeding/Contact
Diet cubes coated with paraffin were sprayed with diluted test solutions in an application chamber. After drying off the treated cubes (10 replicates) were infested with 1 L1 larvae. Samples were incubated at 26-27° C. and checked 14 days after infestation for mortality and growth inhibition.

CCS(=O)(=O)c1c(N2Cc3cc4c(cc3C2=O)OC(F)(F)O4)nc(-c2cnn(CC(F)F)c2)n1C [Compound P4, 6-[2-[1-(2,2-difluoroethyl)pyrazol-4-yl]-5-ethylsulfonyl-1-methyl-imidazol-4-yl]-2,2-difluoro-5H-[1,3]dioxolo[4,5-f]isoindol-7-one]
≥ 80%: percent control (mortality, anti-feedant effect or growth inhibition) at 200 ppm [1] | percent effect (mortality or growth inhibition) at 200 ppm [2] | percent effect (mortality or growth inhibition) at 200 ppm [3] | mortality at 200 ppm [4] | percent effect (mortality or growth inhibition) at 200 ppm [5] | mortality at 24 ppm [6]

CCS(=O)(=O)c1c(N2Cc3cc4c(cc3C2=O)OC(F)(F)O4)nc(-c2cnn(CC3CC3)c2)n1C [Compound P9, 6-[2-[1-(cyclopropylmethyl)pyrazol-4-yl]-5-ethylsulfonyl-1-methyl-imidazol-4-yl]-2,2-difluoro-5H-[1,3]dioxolo[4,5-f]isoindol-7-one]
≥ 80%: percent control (mortality, anti-feedant effect or growth inhibition) at 200 ppm [1] | percent effect (mortality or growth inhibition) at 200 ppm [2] | percent effect (mortality or growth inhibition) at 200 ppm [3] | mortality at 200 ppm [4] | percent effect (mortality or growth inhibition) at 200 ppm [5] | percent control (mortality, anti-feedant effect or growth inhibition) at 200 ppm [7] | mortality at 24 ppm [6]

CCS(=O)(=O)c1c(N2Cc3cc4c(cc3C2=O)OC(F)(F)O4)nc(-c2cnn(CC(F)(F)F)c2)n1C [Compound P14, 6-[5-ethylsulfonyl-1-methyl-2-[1-(2,2,2-trifluoroethyl)pyrazol-4-yl]imidazol-4-yl]-2,2-difluoro-5H-[1,3]dioxolo[4,5-f]isoindol-7-one]
≥ 80%: percent control (mortality, anti-feedant effect or growth inhibition) at 200 ppm [1] | percent effect (mortality or growth inhibition) at 200 ppm [2] | percent effect (mortality or growth inhibition) at 200 ppm [3] | mortality at 200 ppm [4] | percent effect (mortality or growth inhibition) at 200 ppm [5] | percent control (mortality, anti-feedant effect or growth inhibition) at 200 ppm [7] | mortality at 24 ppm [6]

CCS(=O)(=O)c1c(N2Cc3cc4c(cc3C2=O)OC(F)(F)O4)nc(-c2ncccn2)n1C [Compound P15, 6-(5-ethylsulfonyl-1-methyl-2-pyrimidin-2-yl-imidazol-4-yl)-2,2-difluoro-5H-[1,3]dioxolo[4,5-f]isoindol-7-one]
≥ 80%: percent control (mortality, anti-feedant effect or growth inhibition) at 200 ppm [1] | percent effect (mortality or growth inhibition) at 200 ppm [2] | percent effect (mortality or growth inhibition) at 200 ppm [3] | mortality at 200 ppm [4] | percent effect (mortality or growth inhibition) at 200 ppm [5] | percent control (mortality, anti-feedant effect or growth inhibition) at 200 ppm [7] | mortality at 24 ppm [6]

CCS(=O)(=O)c1ccc(-c2ncccn2)nc1N1Cc2cc3c(cc2C1=O)OC(F)(F)O3 [Compound P16, 6-(3-ethylsulfonyl-6-pyrimidin-2-yl-2-pyridyl)-2,2-difluoro-5H-[1,3]dioxolo[4,5-f]isoindol-7-one]
≥ 80%: percent control (mortality, anti-feedant effect or growth inhibition) at 200 ppm [1] | percent effect (mortality or growth inhibition) at 200 ppm [2] | percent effect (mortality or growth inhibition) at 200 ppm [3] | mortality at 200 ppm [4] | percent effect (mortality or growth inhibition) at 200 ppm [5] | percent control (mortality, anti-feedant effect or growth inhibition) at 200 ppm [7] | mortality at 24 ppm [6]

CCS(=O)(=O)c1c(N2Cc3cc4c(cc3C2=O)OC(F)(F)O4)nc(-c2cnn(C(F)F)c2)n1C [Compound P20, 6-[2-[1-(difluoromethyl)pyrazol-4-yl]-5-ethylsulfonyl-1-methyl-imidazol-4-yl]-2,2-difluoro-5H-[1,3]dioxolo[4,5-f]isoindol-7-one]
≥ 80%: mortality at 200 ppm [8] | percent control (mortality, anti-feedant effect or growth inhibition) at 200 ppm [1] | percent effect (mortality or growth inhibition) at 200 ppm [2] | percent effect (mortality or growth inhibition) at 200 ppm [3] | percent effect (mortality or growth inhibition) at 200 ppm [5] | percent control (mortality, anti-feedant effect or growth inhibition) at 200 ppm [7]

CCS(=O)(=O)c1cc(C(C)(C)C#N)cnc1N1Cc2cc3c(cc2C1=O)OC(F)(F)O3 [Compound P22, 2-[6-(2,2-difluoro-7-oxo-5H-[1,3]dioxolo[4,5-f]isoindol-6-yl)-5-ethylsulfonyl-3-pyridyl]-2-methyl-propanenitrile]
≥ 80%: mortality at 200 ppm [8] | percent control (mortality, anti-feedant effect or growth inhibition) at 200 ppm [1] | percent effect (mortality or growth inhibition) at 200 ppm [2] | percent effect (mortality or growth inhibition) at 200 ppm [3] | percent effect (mortality or growth inhibition) at 200 ppm [5] | percent control (mortality, anti-feedant effect or growth inhibition) at 200 ppm [7] | mortality at 12.5 ppm [9]

CCS(=O)(=O)c1cc(C(C)(F)F)cnc1N1Cc2cc3c(cc2C1=O)OC(F)(F)O3 [Compound P23, 6-[5-(1,1-difluoroethyl)-3-ethylsulfonyl-2-pyridyl]-2,2-difluoro-5H-[1,3]dioxolo[4,5-f]isoindol-7-one]
≥ 80%: mortality at 200 ppm [8] | percent control (mortality, anti-feedant effect or growth inhibition) at 200 ppm [1] | percent effect (mortality or growth inhibition) at 200 ppm [5] | percent control (mortality, anti-feedant effect or growth inhibition) at 200 ppm [7] | mortality at 12.5 ppm [9]

CCS(=O)(=O)c1c(N2Cc3cc4c(cc3C2=O)OC(F)(F)O4)nc(C2CC2)n1C [Compound P24, 6-(2-cyclopropyl-5-ethylsulfonyl-1-methyl-imidazol-4-yl)-2,2-difluoro-5H-[1,3]dioxolo[4,5-f]isoindol-7-one]
≥ 80%: percent control (mortality, anti-feedant effect or growth inhibition) at 200 ppm [1] | percent effect (mortality or growth inhibition) at 200 ppm [2] | percent effect (mortality or growth inhibition) at 200 ppm [3] | mortality at 200 ppm [4] | percent effect (mortality or growth inhibition) at 200 ppm [5] | percent control (mortality, anti-feedant effect or growth inhibition) at 200 ppm [7] | mortality at 24 ppm [6]
